The source of these data is US20020032220A1, “Formulations comprising dissolved paroxetine” (SmithKline Beecham plc, priority 1997, published 2002).

Structures can show the parent of a compound that is named as a salt. Bounds are passed on as bounds.

This data set in a line: Solubility testing of paroxetine hydrochloride in liquid carriers/solvents. In kind it is physicochemical. From the text:
Since solid paroxetine forms are in general only sparingly soluble in common solvents, the solvents which are acceptable for use in capsules and for administration to patients need to be subjected to routine solubility testing to confirm that they can maintain an appropriate concentration of paroxetine. In addition, higher loadings of a paroxetine form in a suitable solvent may be achieved by using conventional physical techniques such as heating, shaking and sonication. Alternatively good solvents for paroxetine may be used in small amounts as cosolvents to solubilize paroxetine in liquids that are acceptable for capsule use but in which paroxetine is poorly soluble. Solubilising agents such as the polysorbates, the poloxamers, cyclodextrins, ionic and non-ionic surface active agents, for example Pluronic F60 and Sorbitan esters may also be used to enhance the solubility of paroxetine hydrochloride in solvents acceptable for capsule use but in which paroxetine is poorly soluble.
The term “oral swallow capsule” most suitably denotes a capsule having a maximum volume of 0.86 ml. Preferred capsules according to the present invention have a maximum volume of about 0.45 ml and more especially may lie in the range 0.2 to 0.4 ml, although capsules as small as 0.14 ml are also provided by the invention. […]

Regarding `Fc1ccc([C@@H]2CCNC[C@H]2COc2ccc3c(c2)OCO3)cc1` [paroxetine, (−)trans isomer of 4-(4′-fluorophenyl)-3-(3′,4′-methylenedioxy-phenoxymethyl)-piperidine], the “solubility (in words)” value (in Propylene Carbonate, Triacetin, Glycerol, Lauroglycol, Propylene glycol, PEG 300, Glycofurol, PEG 400, IPA, Span 20, Transcutol, Labrasol, Labrafil, Olepal, Glyceryl Linoleate (Maisine 35-1), Pharmasolve) was “useful solubility”.

For `Fc1ccc([C@@H]2CCNC[C@H]2COc2ccc3c(c2)OCO3)cc1` [paroxetine hydrochloride], where the note is “oil or lipid, in plant oils (Sunflower, Safflower, Peanut, Soybean, Cottonseed, Corn, Castor, Apricot seed, Olive, Wheat germ, Sesame, Evening Primrose, Canola), Mineral oil, liquid paraffin, Miglyol 810/812, Oleic acid, Ethyl Oleate, Span 80/85, Labrafac lipophile, Plurol Oleique, Peceol”, the solubility was < 10000 µg/mL.
